These results are taken from US11098041B2 (Merck Patent GmbH, priority 2014, dated 2021).

Assay [1] relates to IL-1β release by human THP-1 cells. Kind of assay: Assay D: THP-1 cells IL-1β release ELISA assay. It is filed as cell-based. The following applies: PMA and LPS, BzATP stimulation. The method, then: Assay D: THP-1 Cells IL-1β release ELISA Assay
The assay measures IL-1β release by human THP-1 cells after treatment with PMA and LPS in response to BzATP stimulation in order to evaluate the potency of P2X7 inhibitors. THP-1 cells (2×10^5 cells/mL) in culture medium (RPMI1640 (Gibco, #22400-089)+10% HI-FBS (Gibco, #10082-147)+1% L-Glutamine (Gibco, #25030)+1% Pen/Strep (Gibco, #15140) complemented with 0.5 μM PMA (Sigma, #P8139) were incubated for 30 min at 37° C. At the end of the incubation time, the cells were titrated and washed gently in PBS. The cells were then re-suspended to a density of 1.5×10^5 cell/mL in culture medium complemented with 10 ng/mL LPS (Sigma, #L5293). The cell suspension was dispensed (40 μL/well) into a Corning 384-well plate. After 4 hr of incubation at 37° C., the cells were treated with 20 μL of test compounds at various concentrations. The plate was incubated for 30 min at 37° C. and then the cells were treated with 20 μL of 3.2 mM BzATP (Sigma. #B6396) (0.8 mM final concentration). The plate was incubated for an additional 30 min at 37° C., and then subjected to centrifugation (4 min, 1000 rpm). Supernatant (60 μL) from each well was transferred to a 384-matrix PP plate. The plate was then stored at 4° C. (overnight) or −20° C. for longer term storage. The next day, the […] were measured using a human […] ELISA Kit (R & D systems, catalog #DY201) and read using a SpectraMax Plus 384 Microplate Reader.

In assay [2] the test system is anti-IgM-induced expression of CD69 on CD19 positive cells (B cells) in human PBMCs. In words: Assay C: PBMC IC50 assay (anti-IgM-induced CD69 expression). The following applies: anti-IgM stimulation. It is filed as cell-based. The method, boiled down:
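Freshly isolated human PBMCs (2.5×10^5/well) pretreated 1 h with compound, then stimulated overnight (~16-18 h) with goat F(ab′)2 anti-human IgM. CD69 on CD19+ B cells measured by flow cytometry; IC50 from percentage CD69+ B cells versus concentration.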

The next assay has as its target full-length human BTK (Homo sapiens (Human), UniProt Q06187). Kind of assay: Assay A: microfluidic off-chip mobility shift assay against BTK enzyme. It is filed as biochemical.
For assay [3], the target named is BTK C481S (His-TEV-hsBTK(328-659)(C481S)) (Homo sapiens (Human), UniProt Q06187, C481S). In words: Assay B: microfluidic off-chip mobility shift assay against BTK C481S enzyme. The assay is classed as biochemical. The following applies: BTK C481S mutant. The method, boiled down:
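Substrate-to-phosphopeptide conversion quantified by microfluidic mobility shift with laser-induced fluorescence; IC50 and efficacy from log[inhibitor] vs. % activity.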

Bounds are passed on as bounds.

Sequence of BTK C481S (His-TEV-hsBTK(328-659)(C481S)) (Q06187 328-659 C481S): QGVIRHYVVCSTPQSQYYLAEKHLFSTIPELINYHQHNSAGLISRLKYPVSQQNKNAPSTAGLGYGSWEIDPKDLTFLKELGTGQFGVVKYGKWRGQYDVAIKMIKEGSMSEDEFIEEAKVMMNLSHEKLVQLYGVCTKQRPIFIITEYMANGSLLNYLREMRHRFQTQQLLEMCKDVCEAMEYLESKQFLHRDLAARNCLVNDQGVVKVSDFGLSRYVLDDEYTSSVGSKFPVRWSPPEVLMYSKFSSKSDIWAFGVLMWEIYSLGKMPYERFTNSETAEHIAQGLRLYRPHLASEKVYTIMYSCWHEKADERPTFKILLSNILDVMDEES
Sequence of full-length human BTK (Q06187 whole entry): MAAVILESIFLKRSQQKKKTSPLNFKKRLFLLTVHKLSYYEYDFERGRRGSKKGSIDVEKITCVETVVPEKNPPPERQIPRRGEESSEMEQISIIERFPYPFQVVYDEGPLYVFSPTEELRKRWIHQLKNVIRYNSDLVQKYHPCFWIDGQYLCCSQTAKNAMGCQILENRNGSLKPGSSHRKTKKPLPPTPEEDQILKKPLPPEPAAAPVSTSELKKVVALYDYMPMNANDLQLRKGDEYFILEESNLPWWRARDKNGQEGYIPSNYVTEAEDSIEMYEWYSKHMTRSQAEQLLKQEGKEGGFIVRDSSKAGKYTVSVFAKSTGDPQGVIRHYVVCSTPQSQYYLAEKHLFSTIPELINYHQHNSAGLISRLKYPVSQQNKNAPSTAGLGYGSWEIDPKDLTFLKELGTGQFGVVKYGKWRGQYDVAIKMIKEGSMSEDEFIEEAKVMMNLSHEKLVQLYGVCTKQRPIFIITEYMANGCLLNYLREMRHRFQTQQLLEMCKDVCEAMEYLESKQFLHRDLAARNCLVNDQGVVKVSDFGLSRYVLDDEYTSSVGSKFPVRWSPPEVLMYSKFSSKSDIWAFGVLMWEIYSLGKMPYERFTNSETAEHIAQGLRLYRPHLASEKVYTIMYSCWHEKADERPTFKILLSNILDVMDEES

As to `CN1CC=C(c2ccc(-c3nc4c(-c5cccc(N6CCOc7cc(C8CC8)cc(F)c7C6=O)c5CO)ccnc4[nH]3)cc2)CC1` [Example 3, 8-Cyclopropyl-6-fluoro-4-[2-(hydroxymethyl)-3-[2-[4-(1-methyl-1,2,3,6-tetrahydropyridin-4-yl)phenyl]-3H-imidazo[4,5-b]pyridin-7-yl]phenyl]-2,3,4,5-tetrahydro-1,4-benzoxazepin-5-one], the results for the IC50 (in assay [1]; in assay [2]; at full-length human BTK) were 100 to 1000 nM, 100 to 1000 nM and < 100 nM, respectively.

Consider `O=C(c1ccc(-c2nc3c(-c4cccc(N5CCc6cc(C7CC7)ccc6C5=O)c4CO)ccnc3[nH]2)cc1)N1CCOCC1` [Example 6, 6-Cyclopropyl-2-(2-hydroxymethyl-3-{2-[4-(morpholine-4-carbonyl)-phenyl]-3H-imidazo[4,5-b]pyridin-7-yl}-phenyl)-3,4-dihydro-2H-isoquinolin-1-one], for which the half-inhibitory concentration (IC50) is 100 to 1000 nM in assay [1], 1000 to 5000 nM in assay [2], < 100 nM at full-length human BTK and < 100 nM in assay [3].

With `Cn1cc(-c2nc3c(-c4ccc(CNC(=O)N5CC(OC(C)(C)C)C5)c(F)c4)ccnc3[nH]2)cn1` [Example 55, 3-(tert-Butoxy)-N-([2-fluoro-4-[2-(1-methyl-1H-pyrazol-4-yl)-3H-imidazo[4,5-b]pyridin-7-yl]phenyl]methyl)azetidine-1-carboxamide], the IC50 fell in the range of 1000 to 5000 nM in assay [1] and 100 to 1000 nM in assay [2].

Take `CC(C)(O)CCN1Cc2cc(-c3ccnc4[nH]c(-c5ccc(C(=O)N6CCOCC6)cc5)nc34)ccc2C1=O` [Example 114, 2-(3-Hydroxy-3-methyl-butyl)-5-{2-[4-(morpholine-4-carbonyl)-phenyl]-3H-imidazo[4,5-b]pyridin-7-yl}-2,3-dihydro-isoindol-1-one]: the values for the IC50 (in assay [1]; on full-length human BTK; in assay [3]) were 1000 to 5000 nM, > 5000 nM and > 5000 nM, respectively.

For `CC(C)(C)c1ccc2c(c1)CCN(Cc1ccc(-c3ccnc4[nH]c(-c5ccc(C(=O)N6CCOCC6)cc5)nc34)cc1)C2=O` [Example 115, 6-tert-Butyl-2-(4-{2-[4-(morpholine-4-carbonyl)-phenyl]-3H-imidazo[4,5-b]pyridin-7-yl}-benzyl)-3,4-dihydro-2H-isoquinolin-1-one], the IC50 in assay [1] is < 100 nM; in assay [2], 100 to 1000 nM; at full-length human BTK, < 100 nM; in assay [3], < 100 nM.

Turning to `Cc1ccc(-n2ccn(-c3cccc(-c4ccnc5[nH]c(-c6ccc(C(=O)N7CCOCC7)cc6)nc45)c3C)c2=O)cc1` [Example 95, 1-[2-Methyl-3-(2-[4-[(morpholin-4-yl)carbonyl]phenyl]-3H-imidazo[4,5-b]pyridin-7-yl)phenyl]-3-(4-methylphenyl)-2,3-dihydro-1H-imidazol-2-one], the half-inhibitory concentration (IC50) is < 100 nM in assay [1], 1000 to 5000 nM at full-length human BTK and 1000 to 5000 nM in assay [3].

As to `Cc1c(NC(=O)c2ccc(C(C)(C)C)cc2)cccc1-c1ccnc2[nH]c(-c3cnn(C)c3)nc12` [Example 9, 4-tert-Butyl-N-{2-methyl-3-[2-(1-methyl-1H-pyrazol-4-yl)-3H-imidazo[4,5-b]pyridin-7-yl]-phenyl}-benzamide], the IC50 lay within 100 to 1000 nM in assay [1] and 1000 to 5000 nM in assay [2].

On to `Cc1c(NC(=O)c2ccc(C(C)(C)C)cc2)cccc1-c1ccnc2[nH]c(-c3ccc(C(=O)N4CCOCC4)cc3)nc12` [Example 5, 4-(tert-butyl)-N-(2-methyl-3-(2-(4-(morpholine-4-carbonyl)phenyl)-3H-imidazo[4,5-b]pyridin-7-yl)phenyl)benzamide], for which the IC50 is < 100 nM in assay [1] and 1000 to 5000 nM in assay [2].

Take `CC(C)(C)c1nc(C(=O)NCc2ccc(-c3ccnc4[nH]c(-c5ccc(N6CCCC6)cn5)nc34)cc2F)no1` [Example 80, 5-tert-Butyl-N-[(2-fluoro-4-[2-[5-(pyrrolidin-1-yl)pyridin-2-yl]-3H-imidazo[4,5-b]pyridin-7-yl]phenyl)methyl]-1,2,4-oxadiazole-3-carboxamide]: the IC50 in assay [2] is 100 to 1000 nM; on full-length human BTK, < 100 nM; in assay [3], < 100 nM.

`Cn1cc(-c2nc3c(-c4ccc(CNC(=O)c5nc(C(C)(C)C)no5)cc4CO)ccnc3[nH]2)cn1` [Example 105, 3-tert-Butyl-[1,2,4]oxadiazole-5-carboxylic acid 3-hydroxymethyl-4-[2-(1-methyl-1H-pyrazol-4-yl)-3H-imidazo[4,5-b]pyridin-7-yl]-benzylamide]: the half-inhibitory concentration (IC50) in assay [2] is 1000 to 5000 nM; on full-length human BTK, < 100 nM; in assay [3] it was < 100 nM.

For `Cc1cc(CNC(=O)c2noc(C(C)(C)C)n2)c(F)cc1-c1ccnc2[nH]c(-c3cnn(C)c3)nc12` [Example 77, 5-tert-butyl-N-([2-fluoro-5-methyl-4-[2-(1-methyl-1H-pyrazol-4-yl)-3H-imidazo[4,5-b]pyridin-7-yl]phenyl]methyl)-1,2,4-oxadiazole-3-carboxamide], the values for the 50% inhibitory concentration (IC50) (in assay [2]; on full-length human BTK; in assay [3]) were 1000 to 5000 nM, < 100 nM and < 100 nM, respectively.

`CC(C)(C)c1nc(C(=O)NCc2ccc(-c3ccnc4[nH]c(-c5ccc(N6CCCCC6)cn5)nc34)cc2F)no1` [Example 83, 5-tert-Butyl-N-[(2-fluoro-4-[2-[5-(piperidin-1-yl)pyridin-2-yl]-3H-imidazo[4,5-b]pyridin-7-yl]phenyl)methyl]-1,2,4-oxadiazole-3-carboxamide]: the 50% inhibitory concentration (IC50) (in assay [2]; on full-length human BTK; in assay [3]) was < 100 nM throughout.

Take `COc1ccc(-c2nc3c(-c4ccc(CNC(=O)c5ccc(C6CC6)cc5)c(F)c4)ccnc3[nH]2)cc1` [Example 63, 4-Cyclopropyl-N-([2-fluoro-4-[2-(4-methoxyphenyl)-3H-imidazo[4,5-b]pyridin-7-yl]phenyl]methyl) benzamide]: the IC50 in assay [2] is 1000 to 5000 nM; on full-length human BTK it was < 100 nM; in assay [3], < 100 nM.

Turning to `CC(C)(C)c1nc(C(=O)NCc2ccc(-c3ccnc4[nH]c(-c5cnn(CCN)c5)nc34)cc2F)no1` [Example 72, N-[(4-[2-[1-(2-aminoethyl)-1H-pyrazol-4-yl]-3H-imidazo[4,5-b]pyridin-7-yl]-2-fluorophenyl)methyl]-5-tert-butyl-1,2,4-oxadiazole-3-carboxamide], the values for the IC50 (in assay [2]; at full-length human BTK; in assay [3]) were 100 to 1000 nM, < 100 nM and 100 to 1000 nM, respectively.

Consider `Cn1cc(-c2nc3c(-c4ccc(C(C)(C)NC(=O)c5nnc(C(C)(C)C)o5)c(F)c4)ccnc3[nH]2)cn1` [Example 104, 5-tert-Butyl-[1,3,4]oxadiazole-2-carboxylic acid (1-{2-fluoro-4-[2-(1-methyl-1H-pyrazol-4-yl)-3H-imidazo[4,5-b]pyridin-7-yl]-phenyl}-1-methyl-ethyl)-amide], for which the 50% inhibitory concentration (IC50) is 1000 to 5000 nM in assay [2], < 100 nM on full-length human BTK and < 100 nM in assay [3].

Regarding `CC(C)(C)c1nc(C(=O)NCc2ccc(-c3ccnc4[nH]c(-c5cccc(OC(F)(F)F)c5)nc34)cc2F)no1` [Example 74, 5-tert-Butyl-N-[(2-fluoro-4-[2-[3-(trifluoromethoxy)phenyl]-3H-imidazo[4,5-b]pyridin-7-yl]phenyl)methyl]-1,2,4-oxadiazole-3-carboxamide; trifluoroacetic acid], the concentration for half-maximal inhibition (IC50) in assay [2] was 100 to 1000 nM; at full-length human BTK it was < 100 nM; in assay [3] it was < 100 nM.

Take `Cn1cc(-c2nc3c(-c4ccc(CNC(=O)c5nnc(C(C)(C)C)o5)cc4)ccnc3[nH]2)cn1` [Example 109, 5-tert-Butyl-[1,3,4]oxadiazole-2-carboxylic acid 4-[2-(1-methyl-1H-pyrazol-4-yl)-3H-imidazo[4,5-b]pyridin-7-yl]-benzylamide]: the IC50 in assay [2] was 1000 to 5000 nM; at full-length human BTK it was < 100 nM; in assay [3], 1000 to 5000 nM.

On to `Cn1cc(-c2nc3c(-c4ccc(CNC(=O)c5ccc(C6CC6)nc5)c(F)c4)ccnc3[nH]2)cn1` [Example 56, 6-Cyclopropyl-N-([2-fluoro-4-[2-(1-methyl-1H-pyrazol-4-yl)-3H-imidazo[4,5-b]pyridin-7-yl]phenyl]methyl)pyridine-3-carboxamide], for which the IC50 in assay [2] is 1000 to 5000 nM; at full-length human BTK it was < 100 nM; in assay [3], < 100 nM.
